# Data taken from patent publication US20210138025A1, “CATIONIC PEPTIDES WITH IMMUNOMODULATORY AND/OR ANTI-BIOFILM ACTIVITIES” (priority 2018, published 2021).
# Non-standard residues stand in square brackets, D forms with d. Residues, ends and D or L forms follow the SMILES beside them.
# Legend:
# Type in all cases: cell-based
# monocytes = assay: Cytokine production in unstimulated monocytes, bovine (Table 22); conditions: background subtracted
# Experimental: A subset of peptides was tested for stimulation of cytokine production in monocytes (Table 22). For the tested cytokines, the peptides tended to show anti-inflammatory activity rather than […] activity.
# S. aureus (Sau) [1] = conditions: Sau
# [2] = tested on: Pseudomonas aeruginosa (Pa)
# Experimental: (§1) The following strains were assessed vs. Staphylococcus epidermidis (Se), Pseudomonas aeruginosa (Pa), Streptococcus dysgalactiae (Sd), Pasteurella multocida (Pm), Streptococcus agalactiae (Sa), Streptococcus uberis (Su), Streptococcus suis (Ss), Mannheimia haemolytica (Mh), Bordatella bronchiseptica (Bb), Histophilus somnus (Hs), and Staphylococcus pseudintermedius (Sp) (Table 18) for Minimal Inhibitory Concentrations (MIC). Italics=excellent activity (less than or equal to 4 μg/ml).
# Streptococcus suis (Ss) = tested on: Streptococcus suis (Ss)
# Experimental: as §1
# Histophilus somnus (Hs) = tested on: Histophilus somnus (Hs)
# Experimental: as §1
# [3] = tested on: Staphylococcus pseudintermedius (Sp)
# Experimental: as §1
# [4] = tested on: Bordatella bronchiseptica (Bb)
# Experimental: as §1
# [5] = tested on: Streptococcus dysgalactiae (Sd)
# Experimental: as §1
# [6] = tested on: Staphylococcus epidermidis (Se)
# Experimental: as §1
# [7] = tested on: Mannheimia haemolytica (Mh)
# Experimental: as §1
# [8] = tested on: Streptococcus uberis (Su)
# Experimental: as §1
# [9] = tested on: Pasteurella multocida (Pm)
# Experimental: as §1
# [10] = tested on: Streptococcus agalactiae (Sa)
# Experimental: as §1
# CCL5 [11] = assay: CCL5 production by peptide alone and in presence of Con A, canine cells (Table 21); conditions: peptide 32 μg/ml
# Experimental: (§2) A subset of peptides was tested for stimulation of the chemokine CCL5 (Table 21).
# E. coli (Ec) = conditions: Ec
# S. aureus (Sau) [12] = conditions: Sau; remark: listed apart in the source
# CCL5 [13] = assay: CCL5 production by peptide alone and in presence of LPS, bovine cells (Table 21); conditions: peptide 32 μg/ml
# Experimental: as §2
# T-lymphocytes [14] = assay: Cytokine production in T-lymphocytes, bovine (Table 24); conditions: no additional stimulant, background (NONE) subtracted
# T-lymphocytes [15] = assay: Anti-inflammatory activity towards stimulated T-lymphocytes, canine (Table 25); conditions: Canine T-cells, 32 μg/ml of peptide
smiles,measurement,setting,value
"CC[C@@H](C)[C@@H](NC(=O)[C@@H](C)NC(=O)[C@@H](CCCNC(=N)N)NC(=O)[C@@H](Cc1c[nH]c2ccccc12)NC(=O)[C@@H](CCC(N)=O)NC(=O)[C@H](N)C(C)C)C(=O)N[C@H](CCCNC(=N)N)C(=O)N[C@@H](C(=O)N[C@H](CCCNC(=N)N)C(=O)N[C@@H](C(=O)N[C@@H](C(=O)N[C@H](CCCNC(=N)N)C(N)=O)[C@H](C)CC)C(C)C)C(C)C [DJK5, VQWRAIRVRVIR] (H-[dV][dQ][dW][dR][dA][dI][dR][dV][dR][dV][dI][dR]-NH2; N-terminus and C-terminus assumed)",Concentration of Monocyte cytokine IFNγ in absence of additional stimulant,monocytes,-3 pg/mL
same,Concentration of Monocyte cytokine IL-2 in absence of additional stimulant,monocytes,-103 pg/mL
same,Concentration of Monocyte cytokine IL-4 in absence of additional stimulant,monocytes,-196 pg/mL
same,Concentration of Monocyte cytokine IL-6 in absence of additional stimulant,monocytes,75 pg/mL
same,Concentration of Monocyte cytokine IL-13 in absence of additional stimulant,monocytes,294 pg/mL
same,Concentration of Monocyte cytokine TNFα in absence of additional stimulant,monocytes,-218 pg/mL
same,MIC S. aureus,S. aureus (Sau) [1],2 µg/mL
same,MIC Sau,S. aureus (Sau) [1],2 µg/mL
same,MIC Pa,[2],4 µg/mL
same,MIC Ss,Streptococcus suis (Ss),<1 µg/mL
same,MIC Hs,Histophilus somnus (Hs),32 µg/mL
same,MIC Sp,[3],<1 µg/mL
same,MIC Bb,[4],4 µg/mL
same,MIC Sd,[5],<1 µg/mL
same,MIC Se,[6],2 µg/mL
same,MIC Mh,[7],8 µg/mL
same,MIC Su,[8],<1 µg/mL
same,MIC Pm,[9],8 µg/mL
same,MIC Sa,[10],2 µg/mL
same,Concentration of CCL5 in the absence of stimulation by LPS or ConA,CCL5 [11]; Canine Monocyte,442
same,Concentration of CCL5 in the absence of stimulation by LPS or ConA,CCL5 [11]; Canine T-cells,290
same,% CCL5 production relative to that of LPS/ConA,CCL5 [11]; Canine/ConA Monocyte,81%
same,% CCL5 production relative to that of LPS/ConA,CCL5 [11]; Canine/ConA T-cells,26%
same,MBIC,E. coli (Ec),<1 µg/mL
same,MBIC E. coli,E. coli (Ec),<1 µg/mL
same,MBIC,S. aureus (Sau) [12],<1 µg/mL
same,MBIC S. aureus,S. aureus (Sau) [12],<1 µg/mL
same,Concentration of CCL5 in the absence of stimulation by LPS or ConA,CCL5 [13]; Bovine Monocyte,825
same,Concentration of CCL5 in the absence of stimulation by LPS or ConA,CCL5 [13]; Bovine T-cells,195
same,% CCL5 production relative to that of LPS/ConA,CCL5 [13]; Bovine/LPS Monocyte,105%
same,% CCL5 production relative to that of LPS/ConA,CCL5 [13]; Bovine/LPS T-cells,79%
same,Concentration of T-cell cytokines in the absence of additional stimulant: IFNγ,T-lymphocytes [14],-12 pg/mL
same,Concentration of T-cell cytokines in the absence of additional stimulant: IL-2,T-lymphocytes [14],-66 pg/mL
same,Concentration of T-cell cytokines in the absence of additional stimulant: IL-4,T-lymphocytes [14],-73 pg/mL
same,Concentration of T-cell cytokines in the absence of additional stimulant: IL-6,T-lymphocytes [14],-92 pg/mL
same,Concentration of T-cell cytokines in the absence of additional stimulant: IL-13,T-lymphocytes [14],178 pg/mL
same,Concentration of T-cell cytokines in the absence of additional stimulant: TNFα,T-lymphocytes [14],113 pg/mL
same,% Cytokine decrease in the presence of LPS/ConA: IFNγ,T-lymphocytes [15],60.2%
same,% Cytokine decrease in the presence of LPS/ConA: IL-2,T-lymphocytes [15],62.3%
same,% Cytokine decrease in the presence of LPS/ConA: IL-4,T-lymphocytes [15],65.5%
same,% Cytokine decrease in the presence of LPS/ConA: IL-6,T-lymphocytes [15],24.8%
same,% Cytokine decrease in the presence of LPS/ConA: IL-13,T-lymphocytes [15],48.2%
same,% Cytokine decrease in the presence of LPS/ConA: TNFα,T-lymphocytes [15],7.1%
